Data from ChEMBL document CHEMBL1201862, “PubChem BioAssay data set” (2004).
Calls of active or inactive are those of the source.

Columns and labels:
[1] = biological target: T1, RNA-binding protein pos-1 (Caenorhabditis elegans, UniProt G5EF15); assay: disruptors of C. elegans POS-1 RNA interaction – biochemical, fluorescence polarization, dose response (AID 1964);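 further: purified POS-1 fused to maltose binding protein made in E. coli; potency of compounds blocking POS-1 binding to fluorescent RNA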
T1 sequence (G5EF15 whole entry): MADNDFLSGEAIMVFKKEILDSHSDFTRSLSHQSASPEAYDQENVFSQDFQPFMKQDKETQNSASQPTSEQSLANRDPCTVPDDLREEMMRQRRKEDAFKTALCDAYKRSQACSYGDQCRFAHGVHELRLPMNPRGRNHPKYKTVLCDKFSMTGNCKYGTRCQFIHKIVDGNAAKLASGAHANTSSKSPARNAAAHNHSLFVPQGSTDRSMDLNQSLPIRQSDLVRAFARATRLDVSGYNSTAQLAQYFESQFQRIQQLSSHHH

Cytochrome P450 3A4 = Cytochrome P450 3A4 (Homo sapiens, UniProt P08684);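 further: CYP3A4 tested as one member of a cytochrome P450 panel screen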
Chain of Cytochrome P450 3A4 (P08684 whole entry): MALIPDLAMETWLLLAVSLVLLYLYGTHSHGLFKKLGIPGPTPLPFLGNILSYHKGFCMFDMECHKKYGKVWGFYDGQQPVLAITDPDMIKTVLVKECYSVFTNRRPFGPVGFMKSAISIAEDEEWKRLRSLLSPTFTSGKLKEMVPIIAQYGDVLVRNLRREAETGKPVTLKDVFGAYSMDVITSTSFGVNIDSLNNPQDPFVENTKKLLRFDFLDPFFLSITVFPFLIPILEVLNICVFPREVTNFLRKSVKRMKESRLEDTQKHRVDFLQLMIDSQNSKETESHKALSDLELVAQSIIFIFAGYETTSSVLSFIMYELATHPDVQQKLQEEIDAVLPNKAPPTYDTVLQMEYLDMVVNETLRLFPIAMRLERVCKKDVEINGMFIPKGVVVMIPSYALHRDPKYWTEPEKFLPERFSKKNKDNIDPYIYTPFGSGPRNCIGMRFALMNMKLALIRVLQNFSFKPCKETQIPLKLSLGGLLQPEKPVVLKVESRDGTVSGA

[2] = biological target: T2, Zinc finger protein mex-5 (Caenorhabditis elegans, UniProt Q9XUB2); assay: potency of MEX-5 RNA-binding blockers – biochemical, C. elegans, fluorescence polarization, dose response (AID 1960)
T2 sequence (Q9XUB2 whole entry): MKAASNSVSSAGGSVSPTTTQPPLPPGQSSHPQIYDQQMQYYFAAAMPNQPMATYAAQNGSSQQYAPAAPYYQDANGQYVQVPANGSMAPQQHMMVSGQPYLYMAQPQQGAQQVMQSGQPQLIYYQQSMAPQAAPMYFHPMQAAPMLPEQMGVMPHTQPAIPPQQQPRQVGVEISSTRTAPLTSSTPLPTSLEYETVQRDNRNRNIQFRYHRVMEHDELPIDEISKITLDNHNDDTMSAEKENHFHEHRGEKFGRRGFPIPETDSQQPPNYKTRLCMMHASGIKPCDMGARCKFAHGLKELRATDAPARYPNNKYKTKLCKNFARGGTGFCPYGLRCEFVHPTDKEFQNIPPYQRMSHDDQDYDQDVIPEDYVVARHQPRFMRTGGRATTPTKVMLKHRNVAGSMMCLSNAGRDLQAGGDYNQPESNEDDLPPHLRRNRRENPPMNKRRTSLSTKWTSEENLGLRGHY

H9c2 = assay: cells; assay type: functional, cell-based; details: Rattus norvegicus, H9c2, Myocardium;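 further: confirmatory concentration-response retest of ultra-high-throughput screening hits for modulation of myocardial damage; cell death induced by hydrogen peroxide oxidative stress; compound pretreatment for 60 min then peroxide exposure for 2 h; potency is for protecting the cells against peroxide damage rather than for killing them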
[3] = Luminescence Cell-Based Dose Retest to Confirm Inhibitors of Cancer Stem Cells. [Related pubchem assays (depositor defined):AID2717, AID2721]; assay type: functional; details: Homo sapiens
[4] = loss of viability in HepG2 cells – cell-based, CellTiter-Glo, cherry-picked, cytotoxicity control for Shn3 inhibitor project, dose response (AID 624134); assay type: functional
[5] = reduction of Shn3 3'UTR-driven luciferase in osteoblasts – cell-based, Clone20 osteoblasts, firefly luciferase, cherry-picked, dose response (AID 624132); assay type: functional;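 further: firefly luciferase luminescence from reporter carrying the Shn3 3'UTR in osteoblasts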
Leucine aminopeptidase = biological target: T3, Leucine aminopeptidase (Plasmodium falciparum 3D7, UniProt Q8IL11); assay: P. falciparum M17LAP inhibitors, primary screen, biochemical, fluorogenic H-Leu-NHMec substrate, 1536-well (AID 1619); assay type: functional
T3 sequence (Q8IL11 whole entry): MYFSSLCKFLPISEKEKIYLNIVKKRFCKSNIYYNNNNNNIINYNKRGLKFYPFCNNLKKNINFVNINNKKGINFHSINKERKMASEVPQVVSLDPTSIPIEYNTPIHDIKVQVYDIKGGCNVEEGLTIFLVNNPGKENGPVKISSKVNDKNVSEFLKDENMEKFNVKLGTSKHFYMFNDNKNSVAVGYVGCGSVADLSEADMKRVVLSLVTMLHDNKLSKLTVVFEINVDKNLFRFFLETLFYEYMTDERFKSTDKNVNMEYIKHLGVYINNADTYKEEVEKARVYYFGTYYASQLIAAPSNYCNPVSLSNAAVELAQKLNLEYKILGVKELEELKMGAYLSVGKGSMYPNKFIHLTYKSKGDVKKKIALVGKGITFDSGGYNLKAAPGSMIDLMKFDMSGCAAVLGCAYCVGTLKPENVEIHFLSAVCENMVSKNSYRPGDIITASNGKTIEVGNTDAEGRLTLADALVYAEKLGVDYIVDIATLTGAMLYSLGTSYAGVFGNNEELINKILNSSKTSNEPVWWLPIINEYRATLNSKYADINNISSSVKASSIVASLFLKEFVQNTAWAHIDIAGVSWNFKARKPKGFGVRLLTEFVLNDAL

[6] = non-specific 3'UTR reporter inhibition in Clone20-Shn3RL – cell-based, Renilla luciferase, cherry-picked, counter-screen for Shn3 inhibitor project, dose response (AID 624133); assay type: functional
Large T antigen = Large T antigen (Simian virus 40, UniProt P03070); assay type: functional, Betapolyomavirus macacae;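 further: Confirmatory-stage PubChem screen for compounds that inhibit SV40 T antigen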
Chain of Large T antigen (P03070 whole entry): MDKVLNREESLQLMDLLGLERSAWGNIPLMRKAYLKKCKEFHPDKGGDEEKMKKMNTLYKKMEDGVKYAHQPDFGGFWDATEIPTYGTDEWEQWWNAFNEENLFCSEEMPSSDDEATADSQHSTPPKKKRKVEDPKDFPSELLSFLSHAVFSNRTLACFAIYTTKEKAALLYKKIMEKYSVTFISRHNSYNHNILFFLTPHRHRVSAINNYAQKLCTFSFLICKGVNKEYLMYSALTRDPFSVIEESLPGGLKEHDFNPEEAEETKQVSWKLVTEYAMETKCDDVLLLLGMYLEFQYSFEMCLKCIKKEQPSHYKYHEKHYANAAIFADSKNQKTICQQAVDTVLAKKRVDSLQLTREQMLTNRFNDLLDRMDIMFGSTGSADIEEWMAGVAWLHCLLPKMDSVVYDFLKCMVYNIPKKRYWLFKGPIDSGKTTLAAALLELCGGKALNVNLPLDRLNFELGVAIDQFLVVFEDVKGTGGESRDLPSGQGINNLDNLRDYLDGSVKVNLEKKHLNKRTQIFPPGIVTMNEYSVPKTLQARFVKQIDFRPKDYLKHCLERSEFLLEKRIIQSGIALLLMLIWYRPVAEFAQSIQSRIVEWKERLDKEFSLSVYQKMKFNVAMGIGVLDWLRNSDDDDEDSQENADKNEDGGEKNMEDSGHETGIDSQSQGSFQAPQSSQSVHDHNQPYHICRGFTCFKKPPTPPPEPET

[7] = biological target: T4, Rac GTPase-activating protein 1 (Homo sapiens, UniProt Q9H0H5); assay: blockers of MgcRacGAP-driven Rac1 GTP hydrolysis – biochemical, ADP Hunter fluorescence, primary and confirmatory, confirmation (AID 624330); assay type: functional
T4 sequence (Q9H0H5 whole entry): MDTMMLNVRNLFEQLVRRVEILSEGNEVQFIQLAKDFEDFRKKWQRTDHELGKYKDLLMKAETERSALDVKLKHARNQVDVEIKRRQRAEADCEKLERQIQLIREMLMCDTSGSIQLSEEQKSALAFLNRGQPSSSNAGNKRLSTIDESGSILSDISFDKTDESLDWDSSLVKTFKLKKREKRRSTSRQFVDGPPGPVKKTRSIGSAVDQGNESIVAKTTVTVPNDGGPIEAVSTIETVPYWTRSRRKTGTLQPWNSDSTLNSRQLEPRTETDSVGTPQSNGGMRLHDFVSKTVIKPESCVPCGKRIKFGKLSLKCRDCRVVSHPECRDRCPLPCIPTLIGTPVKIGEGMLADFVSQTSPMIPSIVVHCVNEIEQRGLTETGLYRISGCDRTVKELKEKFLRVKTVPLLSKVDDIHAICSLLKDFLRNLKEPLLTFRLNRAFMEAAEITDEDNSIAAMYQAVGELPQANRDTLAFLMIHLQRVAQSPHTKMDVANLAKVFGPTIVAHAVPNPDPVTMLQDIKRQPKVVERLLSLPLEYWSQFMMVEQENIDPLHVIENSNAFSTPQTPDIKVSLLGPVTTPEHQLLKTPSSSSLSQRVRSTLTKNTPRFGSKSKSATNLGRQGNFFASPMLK

[8] = NIH3T3 cell viability loss – ATP luminescence, mouse fibroblasts, counter-screen, dose response (AID 2010); assay type: functional, cell-based;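 further: cells exposed to compound for about 90 hours before reading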
[9] = Trypanosoma cruzi growth suppression in host cells – NIH3T3 host cells, beta-gal luminescence, confirmation (AID 2044); assay type: functional, cell-based;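 further: intracellular parasites grown in NIH/3T3 mouse fibroblasts as host cells; luminescent beta-galactosidase reporter signal from transgenic T. cruzi replicating inside host cells; inhibitors lower the luminescence signal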
[10] = biological target: T5, Ubiquitin-conjugating enzyme E2 N (Homo sapiens, UniProt P61088); assay type: functional;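 further: Dose-response confirmation in a TR-FRET assay detecting UBC13-driven polyubiquitin chain formation, inhibition measured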
T5 sequence (P61088 whole entry): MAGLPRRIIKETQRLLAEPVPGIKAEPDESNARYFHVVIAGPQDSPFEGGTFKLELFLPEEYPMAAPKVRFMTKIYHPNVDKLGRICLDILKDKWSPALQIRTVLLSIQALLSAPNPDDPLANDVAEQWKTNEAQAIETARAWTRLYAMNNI

[11] = biological target: T6, Heat shock factor protein 1 (Mus musculus, UniProt P38532); assay: decrease of HSF1-responsive luciferase luminescence – cell-based, NIH3T3, dose retest, confirmation (AID 2382); assay type: functional;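 further: NIH3T3 fibroblasts with HSF1-driven luciferase reporter stressed by proteasome inhibitor MG132; luminescence from HSF1-driven luciferase expression after 8 hours of MG132 stress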
T6 sequence (P38532 whole entry): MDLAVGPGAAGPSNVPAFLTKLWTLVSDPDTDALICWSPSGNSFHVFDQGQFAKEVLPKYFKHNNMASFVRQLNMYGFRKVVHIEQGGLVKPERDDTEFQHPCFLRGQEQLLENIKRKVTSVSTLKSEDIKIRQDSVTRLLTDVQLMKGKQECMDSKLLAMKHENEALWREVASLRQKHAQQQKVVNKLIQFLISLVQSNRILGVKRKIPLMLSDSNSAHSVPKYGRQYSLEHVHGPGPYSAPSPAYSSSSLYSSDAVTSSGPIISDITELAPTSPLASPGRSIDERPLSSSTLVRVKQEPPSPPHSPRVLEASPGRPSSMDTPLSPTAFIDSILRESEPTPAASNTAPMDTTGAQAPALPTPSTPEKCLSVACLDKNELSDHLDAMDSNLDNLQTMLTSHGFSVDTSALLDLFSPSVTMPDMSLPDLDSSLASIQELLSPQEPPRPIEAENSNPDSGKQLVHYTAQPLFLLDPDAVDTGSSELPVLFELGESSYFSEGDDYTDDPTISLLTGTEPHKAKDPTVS

With CN(C)c1ccnc(Oc2ccc(Cl)cc2)c1C#N the EC50 [1] was > 300 µM (not active), the AC50 (Cytochrome P450 3A4) was 3.16 µM (inconclusive) and the EC50 [2] was > 300 µM (not active).

In the case of CCNc1nn2ccccc2c1/C=C(\C#N)C(=O)OCC, the EC50 [1] is reported as > 300 µM (not active) and the EC50 [2] is reported as 68.8 µM (active).

With CC1(C)Cc2c(C#N)c(SCc3nc4ccccc4[nH]3)nc(N3CCOCC3)c2CO1 the IC50 (H9c2) was 45.5 µM (inactive).

For CCOc1ccc(C2OC34CCCCC3C(C#N)(C#N)C2(C#N)C(=N)O4)cc1OC (centres undefined), the EC50 [1] was 11.8 µM (active) and the EC50 [2] was 10.5 µM (active).

With COc1cccc(-c2cnc3c(NC(C)=O)cc(-c4cccc(NS(C)(=O)=O)c4)cn23)c1 the IC50 (H9c2) was > 79 µM (inactive).

For CCOC(=O)c1ccc(NC(=O)c2[nH]cnc2C(=O)NCCNC(=O)c2nc[nH]c2C(=O)Nc2ccc(C(=O)OCC)cc2)cc1, the AC50 [3] was 0.65 µM (active), the AC50 [4] was 9.03 µM (active) and the AC50 [5] was 5.51 µM (active).

With COC(=O)c1ccc(NCC(=O)N2CCCCCC2)cc1 the IC50 (Leucine aminopeptidase) was 40.3 µM (active).

In the case of Cc1nc2ccccn2c1C(=O)NC1CCCc2ccccc21 (centres undefined), the AC50 [4] is reported as 46.8 µM (active), the AC50 [5] is reported as 2.47 µM (active) and the AC50 [6] is reported as 4.51 µM (active).

For Cc1c(N=C2NC(=O)/C(=C/c3ccc(O)cc3)S2)c(=O)n(-c2ccccc2)n1C, the IC50 (Large T antigen) was 33.1 µM (active) and the IC50 [7] was 60.7 µM (active).

In the case of COc1ccc(C(=O)/C=C/Nc2ccc([N+](=O)[O-])cc2C)cc1OC, the EC50 [1] is reported as 54.6 µM (active) and the EC50 [2] is reported as > 150 µM (not active).

For COc1ccc(N2CCN(C(=O)CN(c3ccccc3)S(C)(=O)=O)CC2)cc1, the IC50 (Large T antigen) was > 100 µM (active).

In the case of CN(c1ccccc1)S(=O)(=O)c1cccc(NC(=O)c2ccc3ncsc3c2)c1, the AC50 [4] is reported as 53.8 µM (active), the AC50 [5] is reported as 17.2 µM (active) and the AC50 [6] is reported as 13.3 µM (active).

With COc1cc(-c2cc(NC=O)c3ncc(-c4ccc(C(C)=O)cc4)n3c2)ccc1O the IC50 (H9c2) was > 79 µM (inactive).

For O=C(NNc1ccccc1)C(=O)NNS(=O)(=O)c1ccc([N+](=O)[O-])cc1, the EC50 [1] was 21.1 µM (active), the EC50 [8] was 9.05 µM (active) and the EC50 [9] was 0.87 µM (active). The EC50 [2] was 5.08 µM (active).

In the case of C=C1CC(C(=O)N/N=C/c2ccc(O)cc2)C1, the IC50 (Large T antigen) is reported as 9.17 µM (active) and the IC50 [7] is reported as 42.6 µM (active).

In the case of CC(C)NC(=O)C1CCN(C(=O)c2cc3sccc3n2Cc2ccc(F)cc2)CC1, the AC50 [4] is reported as 36.6 µM (active), the AC50 [5] is reported as 5.05 µM (active) and the AC50 [6] is reported as 8.2 µM (active).

With Cc1ccc2c(c1)c(/N=N/C(=N)S)c(O)n2Cc1ccccc1 the IC50 [10] was > 20 µM (inactive).

In the case of COc1ccc(-c2ccc3[nH]c4c(c3c2)CCN2C[C@H]3[C@H](C)ON(C)[C@H]3C[C@@H]42)cc1, the IC50 (H9c2) is reported as > 79 µM (inactive).

For CN(C)c1ccc(N/C=C/C(=O)C(F)(F)F)cc1, the IC50 (Large T antigen) was 9.98 µM (active).

For O=Cc1c(-c2ccccc2)nc2ccccn12, the EC50 [1] was > 300 µM (not active) and the EC50 [2] was > 300 µM (not active).

With CCCCc1ccc(NC(=O)N[C@H](C(=O)O)C(C)CC)cc1 (some centres undefined) the IC50 (Leucine aminopeptidase) was 6.31 µM (active).

For COc1ccc(/C(C)=C2\SC(=S)N(CCC(=O)O)C2=O)cc1, the IC50 (Leucine aminopeptidase) was 30.1 µM (active).

In the case of C=C1CC2(CC(c3ccccc3)OC(c3ccccc3)C2)OC1=O (centres undefined), the AC50 [4] is reported as 38.4 µM (active), the AC50 [5] is reported as 2.49 µM (active) and the AC50 [6] is reported as 7.45 µM (active).

In the case of O=C(CN1C(=O)C2C3C=CC(C4CC34)C2C1=O)Nc1cnc2ccccc2c1 (centres undefined), the IC50 (Leucine aminopeptidase) is reported as 21.7 µM (active).

With CCOC(=O)c1c(-c2ccccc2)csc1NC(=O)/C(C#N)=C/c1ccc(OC)c(OC)c1 the EC50 [1] was > 300 µM (not active) and the EC50 [2] was > 300 µM (not active).

In the case of CCN(CCCNC(=O)c1cc2c(-c3cccc(OC)c3)nn(C)c2s1)Cc1ccccc1, the IC50 [10] is reported as > 20 µM (inactive).

For O=C(COC(=O)Cc1nnc(O)c2ccccc12)Nc1ccc(Cl)cc1F, the IC50 (H9c2) was > 79 µM (inactive).

With COc1cccc2c(=O)n(CC(=O)N3CCC(C)CC3)ccc12 the IC50 (Leucine aminopeptidase) was 42.5 µM (active).

For CCC(=O)NC(c1cc(Cl)c2ccccc2c1O)C1CC1 (centres undefined), the IC50 [10] was > 20 µM (inactive).

With O=S(=O)(c1ccccc1)N1CCC(O)(CSc2ccc(Cl)cc2)CC1 the EC50 [1] was > 300 µM (not active) and the EC50 [2] was > 300 µM (not active).

For COc1ccc(Nc2cc(Nc3cc(OC)c(OC)c(OC)c3)ncn2)cc1, the IC50 [10] was > 20 µM (inactive).

In the case of Brc1ccc(C2=CC(c3ccco3)n3ncnc3N2)cc1 (centres undefined), the EC50 [1] is reported as > 300 µM (inconclusive), the EC50 [11] is reported as > 195 µM (not active) and the EC50 [2] is reported as 18.1 µM (active).

In the case of N#Cc1c(-c2cccs2)cc(-c2cccnc2)nc1N, the IC50 (H9c2) is reported as > 79 µM (inactive).

For COc1ccc(-c2cc(NC=O)c3ncc(-c4cccc(C(C)=O)c4)n3c2)cc1, the IC50 (H9c2) was > 79 µM (inactive).
